For assay [1], the target named is T1, Patatin-like phospholipase domain-containing protein 2 (Mus musculus, UniProt Q8BJ56).
T1 sequence (Q8BJ56 whole entry): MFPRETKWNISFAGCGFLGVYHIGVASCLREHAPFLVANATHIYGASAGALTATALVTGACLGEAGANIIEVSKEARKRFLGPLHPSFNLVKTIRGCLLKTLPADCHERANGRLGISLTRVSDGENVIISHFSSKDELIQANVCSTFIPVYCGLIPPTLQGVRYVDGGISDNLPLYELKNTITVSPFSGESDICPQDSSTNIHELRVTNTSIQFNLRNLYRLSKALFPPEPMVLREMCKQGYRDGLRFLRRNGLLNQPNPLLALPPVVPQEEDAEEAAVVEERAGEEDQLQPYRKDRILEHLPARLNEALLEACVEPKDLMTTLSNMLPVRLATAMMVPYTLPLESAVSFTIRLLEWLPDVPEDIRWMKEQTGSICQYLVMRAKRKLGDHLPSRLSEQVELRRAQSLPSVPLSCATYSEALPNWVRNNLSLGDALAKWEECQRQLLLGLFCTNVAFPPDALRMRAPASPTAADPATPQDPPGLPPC
As to the kind of experiment: Inhibition of murine ATGL expressed in COS-7 cells. The class given is cell-based.

The target in assay [2] is T2, Patatin-like phospholipase domain-containing protein 2 (Mus musculus) (UniProt Q8BJ56).
T2 sequence (whole entry): T1 sequence (Q8BJ56 whole entry)
Kind of assay: Inhibition of murine ATGL expressed in COS-7 cells at 200 uM relative to control. The class given is cell-based.

Assay [3] deals with T1, Patatin-like phospholipase domain-containing protein 2. Kind of assay: Inhibition of recombinant murine ATGL expressed in Escherichia coli XL-1 lysates. It counts as subcellular.
Assay [4] concerns the target T2, Patatin-like phospholipase domain-containing protein 2 (Mus musculus). As to the kind of experiment: Inhibition of recombinant murine ATGL expressed in Escherichia coli XL-1 lysates at 200 uM relative to control. The class given is subcellular.

Molecules are shown by their SMILES.

What is called IC50 is the concentration that gives 50% inhibition. A word on the inhibition: it is how much of the control response was suppressed. With `CN(C)C(=O)N(C)c1cccc(-c2ccc(N(C)C)cc2)c1`, in assay [1], the IC50 worked out at 70 µM. The compound further registered an inhibition in assay [2] of 74%.
For `CCOC(=O)c1cccc(-c2ccc(C)cc2)c1`, in that order: 140 µM and 63%.
For `CN(C)c1ccc(-c2cccc(NC(=O)OCc3ccccc3)c2)cc1`, in that order: over 200 µM and 50%.
On to `CCOC(=O)c1ccc(-c2ccc(OCC)cc2)[nH]1`, for which the IC50 in assay [1] was over 200 µM. For the same compound, in assay [2], the inhibition came to 44%.
In assay [1], `CCOC(=O)c1cncc(-c2ccc(OCC)cc2)c1` yielded an IC50 of 130 µM. In assay [2], this compound yielded an inhibition of 70%.
For `CN(C)c1ccc(-c2cccc(N)c2)cc1`, in that order: 100 µM and 70%.
Take `CCOC(=O)c1cn(-c2ccc(OCC)cc2)nn1`: in assay [3], the IC50 was over 200 µM. In addition, the inhibition in assay [4] is 43%.
With `CCOc1ccc(-c2ccccc2)cc1`, in assay [1], the IC50 is over 200 µM. Also, the inhibition in assay [2] worked out at 35%.
As to `CCOc1ccc(-c2cccc(C(=O)OCCOCCOC)c2)cc1`, the IC50 in assay [1] is over 200 µM. Moreover, the inhibition in assay [2] was found to be 43%.
The matching figures for `CCOc1ccc(-c2cccc(C(=O)Oc3ccc([N+](=O)[O-])cc3)c2)cc1`: 150 µM and 56%.
Compound `CCOC(=O)c1cccc(-c2ccc([N+](=O)[O-])cc2)c1` registered an IC50 in assay [1] of 95 µM. For the same compound, the inhibition in assay [2] turned out to be 63%.
The matching figures for `CC(C)COC(=O)Nc1cccc(-c2ccc(N(C)C)cc2)c1`: 22 µM and 90%.
`CCOC(=O)c1cccc(-c2ccc(C(C)N3CCN(C)CC3)cc2)c1` (stereo unspecified): the IC50 was 90 µM in assay [1] and 200 µM in assay [3]. For the same compound, the values for the inhibition in assay [4] and in assay [2] were 30% and 69%, respectively.
In turn, `CCOC(=O)c1cccc(-c2ccncc2)c1` showed an IC50 in assay [1] of over 200 µM. In assay [2], this compound displayed an inhibition of 40%.
Turning to `CCOC(=O)c1cccc(-c2ccc(C(C)=O)cc2)c1`, the IC50 in assay [1] and in assay [3] was 200 µM in each case. Also, the inhibition is 17% in assay [4] and 36% in assay [2].
Take `CCOc1ccc(-c2cccc([N+](=O)[O-])c2)cc1`: in assay [1], the IC50 is over 200 µM. The compound further had an inhibition in assay [2] of 35%.
In the case of `CCOc1ccc(-c2cccc(NC(=O)N(C)C)c2)cc1`, the values for the IC50 in assay [1] and in assay [3] were 70 µM and 9 µM, respectively. Also, the values for the inhibition in assay [4] and in assay [2] were 83% and 68%, respectively.
The compound `CN(C)c1ccc(-c2cccc(NC(=O)N3CCOCC3)c2)cc1` returned an IC50 in assay [1] of over 200 µM. Moreover, in assay [2], the inhibition worked out at 31%.
As for `CCOC(=O)c1cccc(-c2ccc(Br)cc2)c1`, the IC50 in assay [3] was over 200 µM. The inhibition in assay [4] came out at 34%.
With `COC(=O)Nc1cccc(-c2ccc(N(C)C)cc2)c1`, in assay [1], the IC50 worked out at 5 µM. The compound also showed an inhibition in assay [2] of 95%.
As to `CCOC(=O)c1cccc(-c2ccc(C(C)N(C)C)cc2)c1` (stereo unspecified), the IC50 in assay [1] and in assay [3] was 200 µM in each case. Further, the inhibition is 9% in assay [4] and 50% in assay [2].
For the compound `CCOC(=O)c1cccc(-c2ccc(C(=O)CN(C)C)cc2)c1`, the IC50 in assay [1] and in assay [3] was 200 µM throughout. The inhibition in assay [4] is 4%; in assay [2], 20%.
Consider `CCOC(=O)c1cccc(-c2ccc3c(ccn3C)c2)c1`, for which the IC50 in assay [1] was 75 µM. This compound showed an inhibition in assay [2] of 84%.
For `CN(C)c1ccc(-c2cccc(NC(=O)Oc3ccccc3)c2)cc1`, in that order: 73 µM and 75%.
`CN(C)c1ccc(-c2cccc([N+](=O)[O-])c2)cc1` gave an IC50 in assay [1] of over 200 µM. This compound also had an inhibition in assay [2] of 21%.
For `CCOC(=O)c1cccc(-c2ccc(OCC)c([N+](=O)[O-])c2)c1`, in that order: 200 µM and 44%.
For `CCOc1ccc(-c2cccc(S(=O)(=O)N(C)C)c2)cc1`, in that order: 110 µM and 63%.
For `CCOc1ccc(-c2cccc(C(=O)OCCOC)c2)cc1`, in that order: 70 µM and 89%.
`CCOC(=O)c1cccc(-c2ccc(CN3CCCC3)cc2)c1` registered an IC50 in assay [1] of over 200 µM. The compound further gave an inhibition in assay [2] of 33%.
The matching figures for `CCOC(=O)c1cccc(-c2ccc3c(c2)CCN3)c1`: 120 µM and 66%.
The matching figures for `CCOC(=O)c1cccc(-c2ccc(OCC)cc2)c1`: 50 µM and 87%.
Compound `CCOc1ccc(-c2cccc(N)c2)cc1` returned an IC50 in assay [1] of 100 µM. Further, in assay [2], the inhibition was determined as 65%.
Compound `CCOC(=O)c1cccc(-c2ccsc2)c1` had an IC50 in assay [1] of 75 µM. This compound also displayed an inhibition in assay [2] of 67%.
For `CCOC(=O)c1cccc(-c2ccc(CN(C)C)cc2)c1`, in that order: 150 µM and 67%.
In the case of `CCOC(=O)c1cccc(-c2ccc(CN3CCN(C)CC3)cc2)c1`, the IC50 in assay [1] and in assay [3] was over 200 µM throughout. The inhibition stood at 32% in assay [4] and 26% in assay [2].
In assay [1], `CCOC(=O)c1cc(-c2ccc(OCC)cc2)ccn1` displayed an IC50 of 105 µM. For the same compound, the inhibition in assay [2] was found to be 72%.
For `CCOc1ccc(-c2cccc(C(=O)NC)c2)cc1`, in that order: over 200 µM and 40%.
For `CCOC(=O)c1cccc(-c2ccccc2)c1`, in that order: 200 µM and 52%.
The matching figures for `CCOC(=O)c1cccc(-c2cccs2)c1`: 90 µM and 55%.
`CCNS(=O)(=O)c1cccc(-c2ccc(OCC)cc2)c1` registered an IC50 in assay [1] of 200 µM. This compound returned an inhibition in assay [2] of 46%.
For `CCOC(=O)c1cccc(-c2ccc(CN(C)C)o2)c1`, in that order: 190 µM and 53%.
The matching figures for `CCNC(=O)c1cccc(-c2ccc(OCC)cc2)c1`: 90 µM and 62%.
The compound `CCOc1ccc(-c2cccc(S(=O)(=O)NC)c2)cc1` had an IC50 in assay [1] of 200 µM. In assay [2], this compound yielded an inhibition of 47%.
The matching figures for `CCOC(=O)c1ccc(-c2ccc(OCC)cc2)o1`: 50 µM and 93%.
The matching figures for `CCOC(=O)C1CCCC(c2ccc(OCC)cc2)N1` (stereo unspecified): over 200 µM and 48%.
The matching figures for `CCOC(=O)Nc1cccc(-c2ccc(N(C)C)cc2)c1`: 3 µM and 93%.
As for `CCOC(=O)c1cccc(-c2ccc(CN3CCN(S(C)(=O)=O)CC3)o2)c1`, the IC50 in assay [1] was 100 µM. The same compound showed an inhibition in assay [2] of 66%.
The matching figures for `CCOC(=O)c1ccc(-c2ccc(OCC)cc2)s1`: 70 µM and 81%.
The matching figures for `CCOC(=O)c1cccc(-c2ccc(CN3CCCCC3)cc2)c1`: 75 µM and 68%.
The matching figures for `CN(C)c1ccc(-c2cccc(NC(=O)C(C)(C)C)c2)cc1`: over 200 µM and 25%.
As for `CCOC(=O)c1cccc(-c2ccc(OC)cc2)c1`, in assay [1], the IC50 was found to be 80 µM. The compound further returned an inhibition in assay [2] of 77%.
In the case of `CCOC(=O)c1cccc(-c2ccc(O)cc2)c1`, half-maximal inhibition in assay [1] (IC50) was put at 100 µM. The same compound returned an inhibition in assay [2] of 77%.
For `CC(C)OC(=O)Nc1cccc(-c2ccc(N(C)C)cc2)c1`, in that order: 82 µM and 69%.
For `CCOc1ccc(-c2cccc(C(=O)OCC(F)(F)F)c2)cc1`, in that order: 120 µM and 71%.
For `CCOC(=O)c1cccc(-c2ccc3[nH]ccc3c2)c1`, in that order: 60 µM and 80%.
`CCOc1ccc(-c2cccc(NC(C)=O)c2)cc1` came in with an IC50 in assay [1] of 200 µM. In assay [2], this compound came in with an inhibition of 52%.
For the compound `CCOC(=O)c1cccc(-c2ccc(OCC)cc2)n1`, it took 60 µM to reach half-maximal inhibition in assay [1] (IC50). In assay [2], this compound yielded an inhibition of 79%.
As for `CCOC(=O)c1cccc(-c2ccc(OCC)c(N)c2)c1`, in assay [1], the IC50 worked out at 140 µM. Further, the inhibition in assay [2] amounted to 59%.
As for `CCOc1ccc(-c2cccc(C(=O)O)c2)cc1`, the IC50 in assay [1] was over 200 µM. The compound also registered an inhibition in assay [2] of 23%.
Turning to `CCOC(=O)c1cccc(-c2ccc(OCC)nc2)c1`, the IC50 in assay [1] was 130 µM. Besides, the inhibition in assay [2] is 68%.
The matching figures for `CCCCCCOC(=O)c1cccc(-c2ccc(OCC)cc2)c1`: over 200 µM and 48%.
On to `CCOC(=O)c1cccc(-c2ccc(CN3CCN(C)CC3)o2)c1`, for which, in assay [1], the IC50 is 120 µM. Also, the inhibition in assay [2] was determined as 67%.
For `CCCCOC(=O)c1cccc(-c2ccc(OCC)cc2)c1`, in that order: 100 µM and 61%.
The matching figures for `CCOC(=O)N(C)c1cccc(-c2ccc(N(C)C)cc2)c1`: over 200 µM and 20%.
For `CCOc1ccc(-c2cccc(C(=O)N3CCCC3)c2)cc1`, in that order: 160 µM and 53%.
`CCOC(=O)c1ccnc(-c2ccc(OCC)cc2)c1` had an IC50 in assay [1] of 80 µM. The compound further gave an inhibition in assay [2] of 87%.
In the case of `CCOc1ccc(-c2cccc(C)c2)cc1`, the IC50 in assay [1] turned out to be 70 µM. In addition, in assay [2], the inhibition came out at 54%.

The record behind these values is ChEMBL document CHEMBL4725289, “Structure-activity relationship studies for the development of inhibitors of murine adipose triglyceride lipase (ATGL)” (Bioorg Med Chem, 2020).
